Measured values published in ChEMBL document CHEMBL1157290, “Bioactive isomalabaricane triterpenoids from Rhabdastrella globostellata that stabilize the binding of DNA polymerase beta to DNA” (2006).
Activity calls are given as the source filed them. The calls are words filed in the database; no cut-off is given here. *1 amine or outer side, *2 acyl side, *3 side chain or, on linkers, in order; H or OH if unused. Where a SMILES comes first, the peptide text is derived from it. Bridges are numbered along the chain shown (N, C = ends). Roman numbers before positions name the chains, in order. [ ]: non-standard residue; d: D form. Actinocin(1to9) = Cc1c2oc3c(C)ccc(C(=O)[*:2])c3nc-2c(C(=O)[*:1])c(N)c1=O; NMeV = CN[C@H](C(=O)O)C(C)C; Sar = CNCC(=O)O

Columns and labels:
Rattus norvegicus = species: Rattus norvegicus; experiment: Stabilization of rat DNA polymerase binding to DNA by gel mobility assay
A2780 = experiment: Cytotoxicity against human A2780 cells; type: functional

Row | Structure (SMILES) | Activity (Rattus norvegicus) | Activity (A2780) [µM]
1 | CC(C)=C/C=C/C(C)=C/C=C/C(C)=C1\C(=O)C[C@H]2[C@@]3(C)CC[C@@H](O)[C@](C)(C(=O)O)[C@@H]3CC[C@]12C [STELLETTIN K] | inactive | 0.28
2 | Cc1c2oc3c(C)ccc(C(=O)N[C@@H]4C(=O)N[C@H](C(C)C)C(=O)N5CCC[C@H]5C(=O)N(C)CC(=O)N(C)[C@@H](C(C)C)C(=O)O[C@@H]4C)c3nc-2c(C(=O)N[C@@H]2C(=O)N[C@H](C(C)C)C(=O)N3CCC[C@H]3C(=O)N(C)CC(=O)N(C)[C@@H](C(C)C)C(=O)O[C@@H]2C)c(N)c1=O [DACTINOMYCIN] (I: T[dV]P[Sar][NMeV] / II: T[dV]P[Sar][NMeV]; ester I:1-I:C, II:1-II:C; linker I:N-II:N via Actinocin(1to9)) | – | 0.0017
3 | CC(=O)O[C@@H]1CC[C@@]2(C)[C@@H](CC[C@]3(C)/C(=C(C)/C=C/C=C(\C)C(CC=C(C)C)O[C@@H]4OC[C@@H](O)[C@@H](O)[C@H]4O)C(=O)C[C@@H]23)C1(C)C (some centres undefined) [STELLIFERIN RIBOSIDE] | 29% | 7.3
4 | CC(C)=C/C=C/C(C)=C/C=C/C(C)=C1\C(=O)C[C@H]2[C@@]3(C)CC[C@@H](O)[C@](C)(CO)[C@@H]3CC[C@]12C [STELLETTIN J] | 8% | 1.2
5 | CC(=O)OC[C@]1(C)[C@@H]2CC[C@]3(C)/C(=C(C)/C=C/C=C(\C)[C@H](CC=C(C)C)OC(C)=O)C(=O)C[C@H]3[C@@]2(C)CC[C@H]1OC(C)=O | 23% | 27
